Test results as given in patent US20030175906A1, “Nuclease resistant chimeric oligonucleotides” (priority 2001, published 2003).

Experiments:
[1] = tested on: Target RNA; test: Tm values of L-thymidine modified oligonucleotides against RNA; assay type: binding
[2] = In vivo nuclease stability of L/D-oligonucleotide chimera, full-length oligonucleotide in organs by CGE; design: species or system BalbC mouse; settings: IV bolus, after 24 h
Procedure: Here we report the in vivo nuclease stability of L/D-oligonucleotide chimera in mouse. We synthesized the phosphoramidite and CPG derived from L-thymidine, which was synthesized from a novel route [Jung, E. M.; Xu, Y. Tetrahedron Lett. 1997, 24, 4199-4202]. A 20 mer phosphorothioate oligonucleotide ISIS-120745 (antisense to mouse ICAM-1) was capped with L-2′-deoxy thymidine at 3′ and 5′-positions. The oligonucleotide was then administered IV bolus into BalbC mouse. After 24 h. mouse was sacrificed and the oligonucleotide was isolated from different organs. Percentage of full-length oligonucleotide present in different organs were analyzed by CGE.

Row | Substance | Tm, Target RNA [1] [°C] | ΔTm [1] [°C] | intact full-length oligonucleotide isolated from all the major organs [2] [%]
1 | ISIS 121785: 5′ T*C^oC^oGCGCTGTGATGCA^oT^oT* 3′ (SEQ ID NO:2), L-thymidine caps, 2′-O-MOE, all P=S (DNA NNNCGCTGTGATGCNNN; L-thymidine caps, 2'-O-MOE, phosphorothioate, chemistry not fully specified) | 63.3 | 2.7 | –
2 | ISIS 120745: 5′ T*GC ATC CCC CAG GCC ACC AT* 3′, T* = L-Thymidine, all P=S; antisense to mouse ICAM-1 (antisense TGCATCCCCCAGGCCACCAT; chemistry not fully specified) | – | −1.76 | > 90
